According to patent publication US5786348A, “Methods for preparation and use of 1α,24(S)-dihydroxy vitamin D2” (priority 1995, dated 1998):
Where two headings read alike, the source gives them in different places.

Assays:
[1] = system: 1,25-(OH)2 D3 receptor site; conditions: Ishizuka et al., Steroids 1981, 1982; cited from earlier work
bovine thymus VDR = target: T1, bovine thymus VDR (Bos taurus, UniProt Q28037); assay: Radioreceptor assay with bovine thymus VDR (Incstar), displacement of 3H-1α,25-(OH)2 D3; assay type: binding; conditions: bovine thymus VDR radioreceptor assay; read-out: Half-maximal binding (converted)
T1 construct: commercially available kit of bovine thymus VDR; purchased Incstar (Stillwater, Minn.); host or cells: bovine thymus
T1 sequence (Q28037 1-426): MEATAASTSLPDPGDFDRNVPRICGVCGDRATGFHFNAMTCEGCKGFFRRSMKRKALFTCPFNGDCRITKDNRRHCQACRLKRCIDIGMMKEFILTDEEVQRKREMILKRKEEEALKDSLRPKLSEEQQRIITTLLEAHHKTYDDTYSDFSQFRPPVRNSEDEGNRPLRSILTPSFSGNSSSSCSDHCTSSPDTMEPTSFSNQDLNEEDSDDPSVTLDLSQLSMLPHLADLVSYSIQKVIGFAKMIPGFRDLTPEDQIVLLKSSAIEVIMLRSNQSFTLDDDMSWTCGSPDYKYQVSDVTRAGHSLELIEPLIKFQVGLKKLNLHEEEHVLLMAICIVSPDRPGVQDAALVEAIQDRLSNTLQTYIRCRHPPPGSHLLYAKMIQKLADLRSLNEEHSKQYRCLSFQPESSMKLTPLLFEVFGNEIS
Source text: Purified 1α,24(S)-(OH)2 D2 was quantitated by photodiode array spectrophotometry and assayed in the radioreceptor assay.
The purified 1α,24(R)-(OH)2 D2 and 1α,24(S)-(OH)2 D2 epimers were quantitated by ultraviolet spectroscopy. The concentration of 1α,24(R)-(OH)2 D2 required to produce the same displacement of ^3 H-1α,25-(OH)2 D3 tracer from the receptor was 20 to 30 times that required for 1α,24(S)-(OH)2 D2, as shown in FIG. 4.

[2] = assay type: in vivo, rat
Protocol: Vitamin D2 or 24-OH-D2 was administered (either oral or intraperitoneal supplementation) to vitamin D-deficient rats. Lipid extracts of the plasma were prepared and the metabolites purified by the method of Horst et al. (Horst, R. L., Koszewski, N. J. and Reinhardt, T. A., Biochem., 29:578-82 (1990)) described below for synthesyzing standard biological 1α,24-(OH)2 D2.
Standard biological 1α,24-(OH)2 D2 was synthesized in vitro from 24-OH-D2 by incubating 10 μg of 24-OH-D2 in flask containing 5 ml of 20% kidney homogenates made from vitamin D-deficient chicks. The product of this reaction was isolated by HPLC and identified by mass spectrometry.

vitamin D receptor (VDR) = target: T2, vitamin D receptor (VDR) (Homo sapiens, UniProt P11473); assay: Vitamin D-dependent transcriptional activation: growth hormone production in COS-1 cells co-transfected with VDR plasmid and VDRE-GH reporter; assay type: cell-based; conditions: for Total GH Production: averages of duplicate determinations
T2 sequence (P11473 1-427): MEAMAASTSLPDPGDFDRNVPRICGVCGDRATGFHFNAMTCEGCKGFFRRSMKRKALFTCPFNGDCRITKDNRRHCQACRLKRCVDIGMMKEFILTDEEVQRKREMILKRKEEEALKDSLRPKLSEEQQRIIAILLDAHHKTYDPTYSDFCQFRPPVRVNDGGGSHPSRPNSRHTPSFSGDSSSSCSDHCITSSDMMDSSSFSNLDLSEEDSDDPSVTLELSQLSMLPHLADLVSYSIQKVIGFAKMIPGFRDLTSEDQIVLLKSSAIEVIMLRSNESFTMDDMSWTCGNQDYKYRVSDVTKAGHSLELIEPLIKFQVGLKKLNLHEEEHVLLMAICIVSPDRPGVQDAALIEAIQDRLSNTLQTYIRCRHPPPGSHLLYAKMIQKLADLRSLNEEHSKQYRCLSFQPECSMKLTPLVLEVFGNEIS
Protocol: The biological activity in vitro of chemically synthesized 1α,24(S)-(OH)2 D2 and 1α,24(R)-(OH)2 D2 was measured using a vitamin D-dependent transcriptional activation model system in which a vitamin D receptor (VDR)-expressing plasmid pSG5-hVDR1/3and a plasmid p(CT4)^4 TKGH containing a Growth Hormone (GH)-gene, under the control of a vitamin D-responsive element (VDRE) were co-transfected into Green monkey kidney, COS-1 cells. DNA's for these two vectors were supplied by Dr. Mark Haussler, Department of Biochemistry, University of Arizona, Tucson, Ariz.
Transfected cells were incubated with vitamin D metabolites and growth hormone production was measured.

[3] = Blood metabolite levels in osteoporotic women given 1α-OH-D2; assay type: in vivo, human; conditions: one day after a single 2 μg dose
Protocol: An increase in the production of 1α,24(S)-(OH)2 D2 relative to 1α,25-(OH)2 D2 has also been observed by the present inventors in human females who received 1α-OH-D2 as part of an investigation of that drug for the treatment of osteoporosis. Following either a single dose of 2 μg of 1α-OH-D2 or daily doses of 8 μg/day for one week, blood was collected and analyzed for the metabolites 1α,24(S)-(OH)2 D2 and 1α,25-(OH)2 D2. Lipid was extracted from the blood, and the metabolites were purified by HPLC using standard methods and quantified with the radioreceptor assay produced by Incstar (Stillwater, Minn.). One day after a single 2 μg dose, the level of 1α,24(S)-(OH)2 D2 was undetectable with the 1α,25-(OH)2 D2 level being approximately 11 pg/ml. In contrast, one day following the last dose of 8 μg, the level of 1α,24(S)-(OH)2 D2 averaged 9 pg/ml with the 1α,25-(OH)2 D2 level averaging 30 pg/ml.

Hep 3B cells = assay: Metabolism of 1α-OH-D2 in Hep 3B human hepatoma cells at rising substrate concentration; assay type: in vitro ADME; conditions: Experiment 2, photodiode array spectrophotometry
Protocol: Substantially pure 1α-(OH)D2 was obtained from Bone Care International, Inc. of Madison, Wis. The 1α-(OH)D2 was cultured for 48 hours with cells derived from a human hepatoma, Hep 3B, in medium devoid of fetal calf serum using known methods in the art.
Lipid extracts of the combined medium and cells were generated by known methods in the art and were subjected to high pressure liquid chromatography (HPLC) on Zorbax-S1L developed with hexane/isopropanol/methanol (91:7:2). The putative 1α,24(?)-(OH)2 D2 metabolite eluted between the parent 1α-(OH)D2 and standard 1α,25-(OH)2 D2 (also obtained from Bone Care International, Inc. of Madison, Wis.). (As used herein, the term "1α,24(?)-(OH)2 D2 " is meant to indicate that the epimeric form has not been identified.) The 1α,24(?)-(OH)2 D2 was further purified by this HPLC system before the metabolite's identification was undertaken using mass spectrometry analysis.
Hep 3B cells were incubated with 1α-OH-D2, as described above, at final concentrations of 1, 10, or 100 nM (Experiment 1), and 1 or 10 μM (Experiment 2) and 1α,24(S)-(OH)2 D2 was extracted and purified. The 1α,24(S)-(OH)2 D2 and 1α,25-(OH)2 D2 metabolites were quantitated by recovered radiolabel (Experiment 1) or by photodiode array spectrophotometry (Experiment 2).

[4] = human, in vivo; cited from earlier work
[5] = inducer molar concentration 10^-5
[6] = inducer molar concentration 10^-6
[7] = inducer molar concentration 10^-7
[8] = inducer molar concentration 10^-8
[9] = inducer molar concentration 10^-9

Q: Which “Binding of the 1,25-(OH)2 D3 receptor site relative to 1,25-(OH)2 D3” value [1] does the source give for `C=C1/C(=C\C=C2/CCC[C@]3(C)[C@@H]([C@H](C)CC[C@@H](O)C(C)C)CC[C@@H]23)C[C@@H](O)C[C@@H]1O` [1α,24(R)-(OH)2 D3, 1α,24(R)-dihydroxyvitamin D3] here?
A: more tightly

Q: With `C=C1/C(=C\C=C2/CCC[C@]3(C)[C@@H]([C@H](C)/C=C/[C@H](C)C(C)(C)O)CC[C@@H]23)C[C@@H](O)C[C@@H]1O` [1α,25-(OH)2D2, 1α,25-dihydroxy vitamin D2, reference compound] as the compound, how does the IC50 (bovine thymus VDR) read?
A: 0.187 nM

Q: Which “Metabolite isolated from plasma lipid extracts” value ([2]; rat, in vivo) does the source give for `C=C1CC[C@H](O)C/C1=C/C=C1\CCC[C@]2(C)[C@@H]([C@H](C)/C=C/C(C)(O)C(C)C)CC[C@@H]12` (stereo partly shown) [24-OH-D2, 24-hydroxyvitamin D2] here?
A: co-migrated on HPLC with the standard 1α,24-(OH)2 D2

Q: For `C=C1CC[C@H](O)C/C1=C/C=C1\CCC[C@]2(C)[C@@H]([C@H](C)CCCC(C)(C)O)CC[C@@H]12` [25-OH-D3, 25-hydroxy vitamin D3, reference compound], which “Net vitamin D-inducible GH-production” value (vitamin D receptor (VDR); [5]) is on record?
A: 731 ng/mL

Q: And the “Total GH Production” value (vitamin D receptor (VDR); [5])?
A: 775 ng/mL

Q: And the “Net vitamin D-inducible GH-production” value (vitamin D receptor (VDR); [6])?
A: 1056 ng/mL

Q: And the “Total GH Production” value (vitamin D receptor (VDR); [6])?
A: 1100 ng/mL

Q: What about the “Net vitamin D-inducible GH-production” value (vitamin D receptor (VDR); [7]) of the same compound?
A: 201 ng/mL

Q: And the “Total GH Production” value (vitamin D receptor (VDR); [7])?
A: 245 ng/mL

Q: What does the source list for `C=C1/C(=C\C=C2/CCC[C@]3(C)[C@@H]([C@H](C)/C=C/[C@H](C)C(C)C)CC[C@@H]23)C[C@@H](O)C[C@@H]1O` [1α-OH-D2, 1α-hydroxy vitamin D2]?
A: Blood level of metabolite 1α,24(S)-(OH)2 D2 [3]: undetectable; Rate of Production of 1α,24(S)-(OH)2 D2 (Hep 3B cells; substrate concentration 1 μM): 4.9 pmol per 10^6 cells/day; Rate of Production of 1α,24(S)-(OH)2 D2 (Hep 3B cells; substrate concentration 10 μM): 59 pmol per 10^6 cells/day; Rate of Production of 1α,25-(OH)2 D2 (Hep 3B cells; substrate concentration 10 μM): 7.4 pmol per 10^6 cells/day

Q: With `C=C1CC[C@H](O)C/C1=C/C=C1\CCC[C@]2(C)[C@@H]([C@H](C)/C=C/[C@H](C)C(C)C)CC[C@@H]12` [vitamin D2, Vitamin D2] as the compound, how does the “Metabolite isolated from plasma lipid extracts” value ([2]; vitamin D-deficient rats, HPLC against standard biological 1α,24-(OH)2 D2) read?
A: co-migrated on HPLC with the standard 1α,24-(OH)2 D2

Q: Which “Net vitamin D-inducible GH-production” value (vitamin D receptor (VDR); [7]) does the source give for `C=C1/C(=C\C=C2/CCC[C@]3(C)[C@@H]([C@H](C)/C=C/[C@](C)(O)C(C)C)CC[C@@H]23)C[C@@H](O)C[C@@H]1O` [1α,24(R)-(OH)2 D2, 1α,24(R)-dihydroxy vitamin D2] here?
A: 1256 ng/mL

Q: And the “Total GH Production” value (vitamin D receptor (VDR); [7])?
A: 1300 ng/mL

Q: And the “Net vitamin D-inducible GH-production” value (vitamin D receptor (VDR); [8])?
A: 1056 ng/mL

Q: And the “Total GH Production” value (vitamin D receptor (VDR); [8])?
A: 1100 ng/mL

Q: What about the “Net vitamin D-inducible GH-production” value (vitamin D receptor (VDR); [9]) of the same compound?
A: 36 ng/mL

Q: What about the “Total GH Production” value (vitamin D receptor (VDR); [9]) of the same compound?
A: 80 ng/mL

Q: Which “Safety of dosage levels of 2.0 μg/day or greater” value [4] does the source give for `C=C1/C(=C\C=C2/CCC[C@]3(C)[C@@H]([C@H](C)CCCC(C)C)CC[C@@H]23)C[C@@H](O)C[C@@H]1O` [1α-(OH)D3, 1α-hydroxy vitamin D3] here?
A: not safely obtained

Q: With `C=C1CC[C@H](O)C/C1=C/C=C1\CCC[C@]2(C)[C@@H]([C@H](C)CCCC(C)C)CC[C@@H]12` [vitamin D3] as the compound, how does the 24-OH-D3 in plasma ([2]; comparable vitamin D-deficient rats) read?
A: no detectable
